# Like-named read-outs stand apart in the source and are kept apart here.
# What was measured:
# [1] = system: LPS-FITC (E. coli 055:B5); assay: LPS-FITC binding by PACs immobilized on glass waveguide (stationary assay); design: species or system Escherichia coli; conditions: patterned at 10 mg/mL via PMPI; LPS-FITC 1 hour
# Text: Immobilization of PACs and LPS binding assay—To determine the ability of PAC materials to effectively bind bacteria and bacterial cell components upon immobilization to a solid support, PACs from cranberry and grape juices were covalently attached to the surface of a glass microscope slide (waveguide) using a modification of a common technique used for protein immobilization (Rowe et al., Anal. Chem., 71, 3846 (1999)). Catechin monomer and buffer only areas were also included as controls. Briefly, the waveguides, glass microscope slides (Daigger, Wheeling, Ill.), were cleaned by immersion in potassium hydroxide/methanol solution (Cras et al., Biosens. Bioelectron., 14, 683 (1999)) followed by rinsing and drying. The clean waveguides were then incubated with 2% (3-mercaptopropyl)triethoxysilane (Pierce Chemicals, Rockford, Ill.) in toluene for 45 minutes followed by rinsing and drying. The slides were immersed in 1.8 mM N-[p-maleimidophenyl]isocyanate (PMPI) in ethanol for 1 hour. The maleimide-group of PMPI reacts with the sulfhydryl-group provided by the silane reaction leaving the isocyanate-group free to react with the hydroxyl-groups of PACs. […] Slides were imaged using evanescent wave fluorescence spectroscopy with excitation at 496 nm and emission collected above 515 nm. […]
# [2] = system: HEK 293 cells stably expressing human CD14 and TLR4/MD2; assay: LPS membrane binding in HEK-CD14-TLR4/MD2 cells; type: cell-based; conditions: 25 nM LPS, 1.5 h 37° C.; 0.5 μM PAC; antibodies 500 nM in binding sites
# Protocol: (§1) Analysis of LPS membrane binding and endocytosis. Human embryonic kidney cells (HEK 293) stably expressing human CD14 and TLR4/MD2 (HEK-CD14-TLR4/MD2; Invivogen) were grown in chambered wells and incubated with 25 nM LPS (E. coli serotype O55:B5, Sigma) in the absence or presence of 0.5 μM LH20 PAC (Dial>6K) for 1.5 h at 37° C. […] After incubation, the cells were washed with PBS (10 min) twice and either fixed (with 3.7% paraformaldehyde) to assess LPS membrane binding or fixed and permeabilized (with 0.1% Triton X-100) to determine LPS internalization. After blocking with 1% normal goat serum, membrane bound or internalized LPS was detected using a goat anti-LPS antibody (O/K serotype-specific, Abcam) conjugated to fluorescein. Nuclei were counterstained with DAPI. Imaging was performed using an Olympus IX-71 microscope. The relative amounts of membrane-associated or intracellular fluorescence were quantified by image analysis using Image J software (NIH, v. 1.37). Data is reported as the mean channel fluorescence from membrane-associated or internalized LPS and represents the analysis of 10 to 20 cells from each sample (minimum 10 measurements per each cell). Merged images were produced using Photoshop CS2 (ver. 9).
# [3] = system: HEK 293 cells stably expressing human CD14 and TLR4/MD2; assay: LPS endocytosis (internalization) in HEK-CD14-TLR4/MD2 cells; type: cell-based; conditions: 25 nM LPS, 1.5 h 37° C.; 0.5 μM PAC; antibodies 500 nM in binding sites
# Protocol: as §1
# HEK-CD14-TLR4/MD2 cells = assay: Cytotoxicity, CellTiter96 cell proliferation assay; type: cell-based, human; conditions: 48 h culture
# Protocol: Cytotoxicity assays—Cellular toxicity was measured using a calorimetric cell proliferation assay (CellTiter96™, Promega). HEK-CD14-TLR4/MD2 cells were seeded into the wells of a 96-well plate (1×10^4 cells/well) and cultured with a dose range of test compounds for 48 h prior to assay according to the manufacturer's instructions.
# [4] = system: FITC-labeled LPS (from E. coli 055:B5); assay: Fluorescence-based pull down assay of FITC-LPS with Sepharose-immobilized PACs; type: binding, Escherichia coli; conditions: for IC50: PAC beads equilibrated with lipid A, 3 μg/mL FITC-LPS (approx. 3 nM)
# Protocol: PAC and catechin immobilization—Purified PACs and catechin (Sigma-Aldrich) were immobilized onto activated thiol-Sepharose® 4B (Sigma-Aldrich) via a (N-[p-maleimidophenyl]isocyanate) (PMPI; Pierce) crosslinker. Sepharose® was swelled in deionized water for 1 hour (1 g dry material in 15 mL H2O). The material was then washed using fresh dI-H2O over five suspend/centrifuge/decant cycles (total 50 mL per gram dry starting material). Suspension was accomplished using a vortex and centrifuge steps were conducted at 3,000 g for five minutes. The Sepharose® material (total volume 5 mL per gram starting material) was then rinsed three times with ethanol (total volume 30 mL per gram starting material). The PMPI crosslinker was incubated with the rinsed Sepharose material for 1 hour at room temperature under constant agitation using a 10-fold molar excess of PMPI over the thiol-group concentration with 3% dimethylsulfoxide in ethanol (10 mL per gram starting material). Incubation was followed by centrifuging, decanting, and rinsing in 50% ethanol for three cycles. The Sepharose was then incubated overnight at 4° C. in ethanol with PAC or catechin using a 10-fold molar excess of analyte in 50% ethanol (10 mL per gram starting material). As a final step, the Sepharose was rinsed over four cycles using 50% ethanol (40 mL total per gram starting material) and resuspended in 0.02% sodium azide in H2O (16 mL final volume per gram starting material). The materials were stored in the dark at 4° C. until use. PAC concentrations for bead sets were determined by Prussian blue assay.
# Fluorescence-based pull down assays for lipopolysaccharide (LPS) were conducted in 50 mM TRIS at pH 8.0 using Sepharose-immobilized PACs and agarose-immobilized polymyxin B (Sigma-Aldrich, St. Louis, Mo.). […] The fluorescence of the FITC-labeled LPS (from E. coli 055:B5; Sigma-Aldrich) was measured using a Tecan XSafire monochrometer-based micro plate reader at 495 nm excitation and 520 nm emission (5 nm bandwidths). […]
Substance,binding of LPS-FITC by material immobilized on waveguide [1],decrease in membrane-bound LPS (LPS binding inhibition) [2],inhibition of LPS endocytosis [3] [%],concentrations at which no toxicity was elicited (HEK-CD14-TLR4/MD2 cells),"IC50 ([4]; read-out: IC50, inhibition of FITC-LPS binding by immobilized PACs from cranberries) [nM]","IC50 ([4]; read-out: IC50, inhibition of FITC-LPS binding by immobilized PACs from tea) [nM]",inhibition of FITC-LPS binding by immobilized PACs at high lipid A concentration ([4]; lipid A concentrations as high as 100 μM) [%]
catechin,no binding even at the highest concentrations tested,–,–,–,–,–,–
diphosphoryl lipid A,–,did not significantly reduce LPS membrane binding,84,below 3 μM,500,100,≤ 80

# Source: patent US9040250B2, “Binding interaction of proanthocyanidins with bacteria and bacterial components” (The United States of America, as represented by the …, priority 2006, dated 2015)
